Measured values taken from ChEMBL document CHEMBL1126442 (Bioorg Med Chem Lett, 1992).

Tests used:
[1] = target: T1, Muscarinic acetylcholine receptor M1 (Homo sapiens, UniProt P11229); experiment: Dissociation constant for human Muscarinic acetylcholine receptor M1 was determined.
T1 sequence (P11229 whole entry): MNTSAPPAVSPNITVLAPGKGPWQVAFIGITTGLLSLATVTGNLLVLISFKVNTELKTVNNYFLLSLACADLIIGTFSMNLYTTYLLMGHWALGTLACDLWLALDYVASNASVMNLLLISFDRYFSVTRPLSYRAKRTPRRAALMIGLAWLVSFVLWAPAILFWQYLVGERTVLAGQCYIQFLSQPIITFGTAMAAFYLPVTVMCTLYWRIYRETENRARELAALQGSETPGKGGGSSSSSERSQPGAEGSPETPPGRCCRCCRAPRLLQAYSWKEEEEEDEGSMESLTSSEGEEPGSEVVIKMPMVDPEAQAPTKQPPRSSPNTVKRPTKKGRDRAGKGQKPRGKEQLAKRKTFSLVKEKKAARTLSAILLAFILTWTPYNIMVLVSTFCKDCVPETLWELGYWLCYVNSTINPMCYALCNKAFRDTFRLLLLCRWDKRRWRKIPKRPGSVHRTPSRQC

[2] = target: T2, Muscarinic acetylcholine receptor M2 (Homo sapiens, UniProt P08172); experiment: Dissociation constant for human Muscarinic acetylcholine receptor M2 was determined.
T2 sequence (P08172 whole entry): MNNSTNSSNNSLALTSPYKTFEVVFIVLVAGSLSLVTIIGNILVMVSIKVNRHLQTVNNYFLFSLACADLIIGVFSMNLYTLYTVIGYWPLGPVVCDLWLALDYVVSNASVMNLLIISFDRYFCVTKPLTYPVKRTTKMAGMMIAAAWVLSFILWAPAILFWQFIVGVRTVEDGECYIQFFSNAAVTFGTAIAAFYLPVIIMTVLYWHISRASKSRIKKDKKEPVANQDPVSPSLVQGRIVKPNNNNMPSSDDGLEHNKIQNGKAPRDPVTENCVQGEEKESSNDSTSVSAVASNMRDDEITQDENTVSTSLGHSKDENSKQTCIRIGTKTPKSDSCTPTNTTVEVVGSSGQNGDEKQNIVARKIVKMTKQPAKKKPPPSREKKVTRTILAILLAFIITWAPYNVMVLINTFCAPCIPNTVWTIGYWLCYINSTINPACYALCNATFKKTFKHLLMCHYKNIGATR

[3] = target: T3, Muscarinic acetylcholine receptor M2 (Rattus norvegicus, UniProt P10980); experiment: Dissociation constant for the blocking of brainstem muscarinic M2 receptor was reported.; format: tissue-based
T3 sequence (P10980 whole entry): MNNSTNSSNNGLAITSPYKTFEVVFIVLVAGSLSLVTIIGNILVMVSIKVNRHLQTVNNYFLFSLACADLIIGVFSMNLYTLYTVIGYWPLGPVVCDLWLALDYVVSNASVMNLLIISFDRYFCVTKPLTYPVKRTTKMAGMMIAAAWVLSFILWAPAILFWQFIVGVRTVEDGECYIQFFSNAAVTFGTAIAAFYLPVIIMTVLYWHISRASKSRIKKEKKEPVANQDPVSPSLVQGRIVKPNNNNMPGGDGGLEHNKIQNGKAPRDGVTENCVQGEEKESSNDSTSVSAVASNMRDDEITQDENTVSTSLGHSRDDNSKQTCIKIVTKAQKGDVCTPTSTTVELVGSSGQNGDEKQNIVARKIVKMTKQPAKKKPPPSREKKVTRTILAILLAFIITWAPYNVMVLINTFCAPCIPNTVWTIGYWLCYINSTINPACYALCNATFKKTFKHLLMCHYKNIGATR

[4] = target: T4, Muscarinic acetylcholine receptor M4 (Mus musculus, UniProt P32211); experiment: Potency assessed to inhibit cAMP levels in N1E-115 neuroblastoma cells, for blocking oxotremorine-M in functional assay for Muscarinic acetylcholine receptor M4; format: cell-based
T4 sequence (P32211 whole entry): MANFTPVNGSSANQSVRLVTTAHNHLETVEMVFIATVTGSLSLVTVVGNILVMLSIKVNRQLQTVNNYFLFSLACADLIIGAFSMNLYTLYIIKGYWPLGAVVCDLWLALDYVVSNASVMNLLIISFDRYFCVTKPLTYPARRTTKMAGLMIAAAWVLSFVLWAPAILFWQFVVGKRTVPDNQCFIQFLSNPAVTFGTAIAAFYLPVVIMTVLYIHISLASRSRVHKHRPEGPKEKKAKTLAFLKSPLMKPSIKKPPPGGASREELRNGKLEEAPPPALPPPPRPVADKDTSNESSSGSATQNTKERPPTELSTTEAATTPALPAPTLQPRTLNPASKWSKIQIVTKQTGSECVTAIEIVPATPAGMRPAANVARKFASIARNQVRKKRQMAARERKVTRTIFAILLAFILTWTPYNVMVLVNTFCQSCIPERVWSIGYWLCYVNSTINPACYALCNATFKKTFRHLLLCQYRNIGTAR

[5] = target: T5, Muscarinic acetylcholine receptor M4 (Rattus norvegicus, UniProt P08485); experiment: Potency assessed to inhibit cAMP levels in rat striatum, for blocking oxotremorine-M, in functional assay for Muscarinic acetylcholine receptor M4; format: tissue-based
T5 sequence (P08485 whole entry): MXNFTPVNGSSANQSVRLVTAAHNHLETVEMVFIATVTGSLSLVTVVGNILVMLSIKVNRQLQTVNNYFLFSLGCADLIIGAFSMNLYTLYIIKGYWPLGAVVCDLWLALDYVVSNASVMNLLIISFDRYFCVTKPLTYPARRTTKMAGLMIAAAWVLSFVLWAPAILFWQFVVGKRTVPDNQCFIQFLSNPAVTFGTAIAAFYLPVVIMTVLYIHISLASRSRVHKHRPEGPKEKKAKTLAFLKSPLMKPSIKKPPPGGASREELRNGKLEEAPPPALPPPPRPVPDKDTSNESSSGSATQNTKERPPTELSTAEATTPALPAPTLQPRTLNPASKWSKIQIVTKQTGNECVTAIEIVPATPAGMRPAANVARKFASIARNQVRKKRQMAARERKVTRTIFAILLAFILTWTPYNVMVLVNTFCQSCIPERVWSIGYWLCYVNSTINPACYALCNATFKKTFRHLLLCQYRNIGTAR

[6] = target: T3, Muscarinic acetylcholine receptor M2; experiment: Dissociation constant for the blocking of cardiac muscarinic M2 receptor was reported.; set-up: species or system Heart
[7] = target: T3, Muscarinic acetylcholine receptor M2; experiment: Dissociation constant for the blocking of heart muscarinic M2 receptor was reported.
[8] = organism: Rattus norvegicus; experiment: Ability to reverse oxotremorine-M mediated inhibition of evoked acetylcholine release from hippocampal tissue; format: functional, Hippocampus

Row | Structure (SMILES) | Kd [1] [nM] | Kd [2] [nM] | Kd [3] [nM] | Kd [4] [nM] | Kd [5] [nM] | Kd [6] [nM] | Kd [7] [nM] | Kd [8] [nM]
1 | C[C@@H]1OC(=O)C[C@H]1C/C=C/[C@H]1CCCCN1C | 9700 | 4400 | 1210 |  |  |  |  | 
2 | C[C@@H]1OC(=O)[C@H]2C[C@H]3CCCC[C@@H]3[C@@H](/C=C/[C@H]3CCC[C@H](C)N3C)[C@@H]12 [HIMBACINE] |  |  | 4.6 | 11.3 | 5.4 | 3 | 6.9 | 8.5
